Laboratory results reported in US20030170722A1, “Methods and reagents for regulating apoptosis” (priority 2001, published 2003).

Tests used:
Format in all cases: cell-based
Rat2 fibroblasts [1] = test: TUNEL analysis of staurosporine-induced apoptosis in Rat2puro / Rat2M11L cells; details: 2 μM staurosporine, 5 h
Method: Ectopic Expression of M11L. Control pBabePuro and pBabe-PuroM11L vectors were transiently transfected into BOSC 23 cells and packaged into ecotropic virus particles as described (27). After infection of Rat2 fibroblasts, pooled clones of cells that had stably incorporated the respective proviruses were selected on the basis of ability to grow in the presence of 2.5 μg/ml puromycin, and designated Rat2puro and Rat2M11L. Expression of the M11L protein by Rat2M11L cells was verified by immunoblot analysis (data not shown). Transient expression of GFP chimeric proteins for flow cytometry was accomplished by transfecting HeLa cells with GFP plasmid constructs using the Lipofectin Plus reagent (GIBCO BRL) as described (28). Analysis was conducted 24 h after transfection.
Induction and Measurement of Apoptosis. Apoptosis was induced by addition of staurosporine (Sigma Chemical Co.) to the cell culture medium at a final concentration of 2 μM. Apoptotic cells were identified by measuring the characteristic elevation in levels of nicked DNA using the previously described terminal deoxynucleotidyl transferase-mediated dUTP-fluorescein nick end labeling (TUNEL) reaction (19, 29).

Caspase-3 = Caspase-3 activation by SDS-PAGE and immunoblot in Rat2puro / Rat2M11L cells; details: 5 μM staurosporine, 4 h
Method: Measurement of Caspase-3 Activation. Rat2puro and Rat2-M11L cells (10^6) were incubated with 5 μM staurosporine for up to 4 h. Caspase-3 activation was detected by SDS-PAGE and immunoblot analysis as described (30) using an antibody directed against the large subunit of the active enzyme (provided by Dr. D. Nicholson, MerckFrosst Center for Therapeutic Research, Montreal, Quebec, Canada).

Rat2 fibroblasts [2] = details: control cells, CCCP 50 μM
Method: Measurement of Mitochondrial Membrane Potential in Cells Expressing M11L Constructs. Rat2puro or Rat2M11L cells were cultured in 12-well plates (5×10^5 cells/well) and treated with 2 μM staurosporine for 4 h. As the staurosporine stock was prepared in DMSO, control cells were treated with an equivalent amount of DMSO alone. Thereafter, the cells were stained with the green fluorescent dye 3,3′dihexyloxacarbocyanine iodide (DiOC6; Molecular Probes). […] Cells were incubated with 0.5 nM DiOC6 at 37° C. for 10 min, harvested with trypsin, and then washed and resuspended in RPMI lacking phenol red (GIBCO BRL). […] CCCP was added to the cell culture medium at a final concentration of 50 μM during and after dye addition. Flow cytometric analysis was conducted using a Becton Dickinson FACSCalibur™ flow cytometer equipped with an argon ion laser with 15 mW of excitation at 488 nm. Data were acquired at 10,000 cells per sample, and the fluorescent signal due to excitation of DiOC6 at 488 nm was detected through the FL1 channel equipped with a 530 nm filter (30 nm band pass). Light scatter signals were acquired at linear gain, and fluorescence signals were acquired at logarithmic gain.

HeLa cells = test: Mitochondrial membrane potential by TMRE fluorescence in HeLa cells expressing GFP constructs; details: CCCP
Method: Measurement of Mitochondrial Membrane Potential in Cells Expressing M11L Constructs. […] Flow cytometric analysis was conducted using a Becton Dickinson FACSCalibur™ flow cytometer equipped with an argon ion laser with 15 mW of excitation at 488 nm. […] HeLa cells transiently expressing GFP plasmid constructs were treated with 2.5 μM staurosporine, and control samples were treated with DMSO alone. […] Flow cytometric analysis to detect green fluorescence due to GFP and orange fluorescence due to TMRE was conducted using a FACSCalibur™ instrument specified above. GFP fluorescence was collected after a 530/30-nm band pass filter, and TMRE fluorescence was acquired through a 585/42-nm band pass filter. Electronic fluorescence compensation was set to eliminate any spectral overlap of the emitted signals. Data were acquired at 10,000 cells per sample with fluorescence signals at logarithmic gain. The percentage of GFP-positive cells that were also TMRE-positive was then calculated for each gated cell population.

Row | Molecule | levels of TUNEL-positive (apoptotic) cells (Rat2 fibroblasts [1]) | Caspase-3 activation (32 kD proenzyme reduced, p19 cleavage product) (Caspase-3) | DiOC6 fluorescence (mitochondrial membrane potential) (Rat2 fibroblasts [2]) | TMRE fluorescence (mitochondrial membrane potential) (HeLa cells)
1 | CN[C@@H]1C[C@H]2O[C@@](C)([C@@H]1OC)n1c3ccccc3c3c4c(c5c6ccccc6n2c5c31)C(=O)NC4 [staurosporine] | steady increase in the levels of TUNEL-positive Rat2puro cells | resulted in activation of Caspase-3 | – | –
2 | carbonyl cyanide mchlorophenyl hydrazone [CCCP] | – | – | Fluorescence was diminished | induced a marked loss of TMRE fluorescence
